From US10420831B2, “Inactivation of viruses by delipidation” (priority 2016, dated 2019)
Read-outs that look alike come from different tables or passages of the source.

Assays:
[1] = system: PRRSV-RESP; assay: Blind passage assay of delipidated PRRSV on Marc-145 cells; format: cell-based; conditions: 100 mM MBCD for 90 minutes
[2] = system: human influenza virus H1N1 A/WSN/33 strain; format: cell-based; conditions: 50 mM MBCD
[3] = system: PRRSV-RESP strain; assay: In vitro infectivity of PRRSV, plaque titration on Marc-145 cells; format: cell-based; conditions: for In Vitro Infectivity: 60 minutes at 37° C.
Procedure: The PRRSV are titrated for in vitro infectivity using the following procedure. Using the cell culture and transfer procedures above, Marc-145 cells are suspended in DMEM containing 10% FBS at a final density of 1.5×10^5 cell/mL. Two mL of the Marc-145 cell suspension are added to each well of a 6-well plate, and the plates are incubated overnight at 37° C. with 5% CO2. Virus samples are thawed in a 37° C. water bath, followed by centrifugation at 500×g for 10 minutes at 4° C. A 1/10 dilution series of viruses is prepared and stored at 4° C. until use, using EMEM as the dilution buffer.
When the Marc-145 cells are at least 90% confluent, the medium is removed, and 0.5 mL dilution buffer and 0.5 mL of the virus dilution are added into each well. For the negative control, 1.0 mL dilution buffer is used. The plates are gently shaken immediately after each dilution is added. Plates are incubated for 60-90 minutes at 37° C. in 5% CO2 and rocked every 15 minutes. Each well of each 6-well plate is then overlaid with 3 mL of a 1:4 mixture of 2.5% low melting point agarose in PBS solution and dilution buffer at 37° C. The plates are incubated at room temperature for 15 minutes to allow the overlay mixture to solidify, and then the plates are incubated at 37° C. with 5% CO2 for 96 hours.
Plaques are visualized using the following procedure. After the plaques are fully developed (96 hours post-infection), 1 mL 4% paraformaldehyde is added, and the plates are incubated at room temperature for 1 hour. Solubilized agarose is discarded, and 0.5 mL of 0.5% crystal violet is added to each well. The number of plaques is counted after 15 minutes of incubation with the crystal violet and converted to a titer based on the dilution factors.
Solvent and mock treatments are conducted according to the following procedure. One hundred μL aliquots of the concentrated PRRSV stock at about 1×10^9 PFU/mL are diluted into 900 μL PBS in Eppendorf tubes to achieve a final titer of 1.0-5.0×10^8 PFU/mL. […] Eppendorf tubes are then capped and sealed with parafilm. All the samples are secured in an SHZ-82 constant-temperature orbital air-bath shaker (Changzhou Guohua Appliance Co., China) preheated to 37° C. The solvent- and mock-treated samples are spun at an orbital rotation speed of 220 rpm at 37° C. for the desired time. The respective samples are spun in a micro-centrifuge for 1 minute, and the supernatants containing IFV are transferred to ultracentrifuge tubes. Tubes are centrifuged at 100,000×g (OPTIMA™ L-100XP centrifuge; Beckman Coulter, Inc., Indianapolis Ind.) for 30 minutes to pellet the PRRSV, and the supernatants are discarded. The PRRSV pellets are resuspended in 200 μL PBS and stored at −80° C. until further analyses.
The protein content of the delipidated and mock-treated PRRSV is determined using a BCA assay (PIERCE™ BCA Protein Assay Kit) according to the manufacturer's instructions. The cholesterol content also is determined using a cholesterol assay (Amplex® Red Cholesterol Assay Kit, Life Technologies, Grand Island, N.Y.) performed according to manufacturer's instruction. In vitro infectivity is measured using the same procedures as set forth above.
After ultracentrifugation, the mock-treated and delipidated samples are tested for in vitro infectivity in the Marc-145 cells, and protein and cholesterol contents are determined, using the procedures set forth above.

[4] = system: PRRSV strain SD 11-21; assay: Inactivation of vaccine virus stock, TCID50 virus titration; format: cell-based; conditions: PRRSV SD 11-21, final 30 mM MBCD in two additions, 48 hours at room temperature
[5] = system: human influenza virus H1N1 A/WSN/33 strain; assay: Hemagglutination (HA) activity of treated IFV with chicken red blood cells; conditions: 50 mM MBCD
Procedure: Hemagglutination (HA) activity is determined as follows. Freshly isolated chicken blood is washed three times with PBS, and the red blood cells (RBC) are resuspended in PBS at a concentration of 1%. Virus dilutions (50 μL) are made in PBS and mixed with 50 μL of the RBC suspension. The mixture is added to individual wells in a 96-well plate and the RBC are allowed to settle for 45 minutes. The wells are judged to be HA negative (i.e. no agglutination of RBC) if a dot or pellet of RBC is present, and a well is judged to be positive if a smooth suspension of RBC is present.
In addition to MBCD, another lipid solvent, diisopropyl ether (DIPE) is used to delipidate IFV. […] After a brief centrifugation at 2,000×g for 3 minutes, visible solvent is removed, and the aqueous materials are left to dry in a fume hood for 20 minutes. The samples are then centrifuged at 200,000×g for 30 minutes to recover virus particles.

In the case of methyl β-cyclodextrin [MBCD], the “plaques detected by the blind passage assay” value [1] is reported as “no plaques are detected”, the “IFV infectivity reduced, compared to the mock-treatment” value ([2]; 37° C., 30 minutes, […]) is reported as 2250 fold and the PFU/mL ([2]; IFV, 37° C., 30 minutes) is reported as 4.0 × 10^5 PFU/mL. The “less infectious in vitro, compared to the mock treatment” value ([2]; IFV, 45 minute treatment) was “over 10,000 fold”, the PFU/mL ([2]; IFV, end-over-end rotation at 37° C. for 45 minutes) was 1.0 × 10^3 PFU/mL and the “titer of delipidated PRRSV sample” value ([3]; 100 mM MBCD for 90 minutes) was “under the limit of detection”. The “In Vitro Infectivity” value ([3]; PRRSV-RESP, 5 mM MBCD) was 1.4 × 10^7 PFU/mL, the “In Vitro Infectivity” value ([3]; PRRSV-RESP, 10 mM MBCD) was 7.0 × 10^6 PFU/mL and the “In Vitro Infectivity” value ([3]; PRRSV-RESP, 20 mM MBCD) was 2.8 × 10^6 PFU/mL. For the same substance, the “In Vitro Infectivity” value ([3]; PRRSV-RESP, 30 mM MBCD) was 1.2 × 10^5 PFU/mL, the PRRSV infectivity reduced ([3]; PRRSV-RESP, 50 mM MBCD, 60 min at 37° C.) was “about 380 fold” and the “In Vitro Infectivity” value ([3]; PRRSV-RESP, 50 mM MBCD) was 4.2 × 10^4 PFU/mL. The “live virus in MBCD-inactivated virus solution” value [4] was “no live virus was detected”, the HA units ([5]; 37° C., 30 minutes) was 32 HA units and the “effect on HA activity (in words)” value ([5]; 37° C., 30 minutes) was “same degree as 2%-8% DIPE”. For the same substance, the “effect on HA activity (in words)” value ([5]; 45 minutes) was “not measurably affected” and the HA units ([5]; end-over-end rotation at 37° C. for 45 minutes) was 32 HA units.
